In patent US20180000085A1, “USE OF PICOLINAMIDE COMPOUNDS WITH FUNGICIDAL ACTIVITY” (DOW AGROSCIENCES LLC, priority 2014, published 2018):

What was measured:
Puccinia triticina = test: Wheat brown rust (PUCCRT) disease control on wheat seedlings; type: in vivo; set-up: key to PUCCRT 3DC, HV activity at 100 ppm (% control rating) / PUCCRT disease control, 3DC / PUCCRT 1DP disease control rating, HV activity / PUCCRT 3DC disease control rating, HV activity / PUCCRT 3DC, LV activity at 125.1 g/H (% Control rating) / PUCCRT 1DP, LV activity at 125.1 g/H (% Control rating) / PUCCRT 3DC disease control rating, LV activity at 125.1 g/H / PUCCRT 1DP disease control rating, LV activity at 125.1 g/H / PUCCRT 3DC disease control rating, HV activity at 100 ppm / PUCCRT 1DP disease control rating, HV activity at 100 ppm / HV activity at 100 ppm PUCCRT 3DC (disease control rating) / LV activity at 125.1 g/H PUCCRT 1DP (disease control rating) / LV activity at 125.1 g/H PUCCRT 3DC (disease control rating): A: > 80; B: ≤ 80; C: Not Tested; D: No Activity Observed in the Reported Assay; conditions: for PUCCRT 1DP disease control rating, HV activity / PUCCRT 3DC disease control rating, HV activity: HV application at 100 ppm; for PUCCRT 1DP disease control rating, HV activity / PUCCRT 3DC disease control rating, HV activity / LV activity at 125.1 g/H PUCCRT 1DP (disease control rating) / LV activity at 125.1 g/H PUCCRT 3DC (disease control rating): wheat brown rust
Zymoseptoria tritici = test: Leaf blotch of wheat (SEPTTR) disease control on wheat seedlings; type: in vivo; set-up: key to SEPTTR 1DP, HV activity at 100 ppm (% control rating) / SEPTTR 3DC, HV activity at 100 ppm (% control rating) / SEPTTR disease control, 1DP / SEPTTR disease control, 3DC / SEPTTR 1DP disease control rating, HV activity / SEPTTR 3DC disease control rating, HV activity / SEPTTR 3DC, LV activity at 125.1 g/H (% Control rating) / SEPTTR 1DP, LV activity at 125.1 g/H (% Control rating) / SEPTTR 1DP disease control rating, LV activity at 125.1 g/H / SEPTTR 3DC disease control rating, LV activity at 125.1 g/H / SEPTTR 3DC disease control rating, HV activity at 100 ppm / SEPTTR 1DP disease control rating, HV activity at 100 ppm / HV activity at 100 ppm SEPTTR 3DC (disease control rating) / HV activity at 100 ppm SEPTTR 1DP (disease control rating) / LV activity at 125.1 g/H SEPTTR 1DP (disease control rating) / LV activity at 125.1 g/H SEPTTR 3DC (disease control rating): A: > 80; B: ≤ 80; C: Not Tested; D: No Activity Observed in the Reported Assay; conditions: for SEPTTR 1DP disease control rating, HV activity / SEPTTR 3DC disease control rating, HV activity: HV application at 100 ppm; for SEPTTR 1DP disease control rating, HV activity / SEPTTR 3DC disease control rating, HV activity / LV activity at 125.1 g/H SEPTTR 1DP (disease control rating) / LV activity at 125.1 g/H SEPTTR 3DC (disease control rating): wheat leaf blotch
[1] = high volume application, 100 ppm, 1 day protectant
[2] = high volume application, 100 ppm, 3 day curative
[3] = low volume application, 125.1 g/H, 1 Day Protectant
[4] = low volume application, 125.1 g/H, 3 Day Curative
[5] = HV activity at 100 ppm, 1 Day Protectant, wheat
[6] = HV activity at 100 ppm, 3 Day Curative, wheat
[7] = high volume application, 100 ppm, 1DP
[8] = high volume application, 100 ppm, 3DC
[9] = low volume application, 125.1 g/H, 1 day protectant
[10] = low volume application, 125.1 g/H, 3 day curative

SMILES: COc1ccnc(C(=O)NC(C)C(=O)OC(C)C(Oc2ccc(-c3ccccc3)cc2)C(C)C)c1O (stereo not shown) [Cmpd 388]
- PUCCRT 1DP disease control rating, HV activity (Puccinia triticina; 1 Day Protectant): A (> 80)
- PUCCRT 3DC disease control rating, HV activity (Puccinia triticina; 3 Day Curative): B (≤ 80)
- SEPTTR 1DP disease control rating, HV activity (Zymoseptoria tritici; 1 Day Protectant): A (> 80)
- SEPTTR 3DC disease control rating, HV activity (Zymoseptoria tritici; 3 Day Curative): B (≤ 80)

SMILES: CC[C@H](OC(=O)[C@H](C)NC(=O)c1nccc(OC)c1O)[C@H](Oc1ccccc1)C(C)C [Cmpd 815]
- PUCCRT 1DP disease control rating, HV activity at 100 ppm (Puccinia triticina; [1]): A (> 80)
- PUCCRT 3DC disease control rating, HV activity at 100 ppm (Puccinia triticina; [2]): A (> 80)
- SEPTTR 1DP disease control rating, HV activity at 100 ppm (Zymoseptoria tritici; [1]): B (≤ 80)
- SEPTTR 3DC disease control rating, HV activity at 100 ppm (Zymoseptoria tritici; [2]): D

SMILES: CCC[C@@H](Oc1cccc(Cl)c1)[C@H](C)OC(=O)[C@H](C)NC(=O)c1nccc(OC)c1OC(C)=O [Cmpd 1056]
- LV activity at 125.1 g/H PUCCRT 1DP (disease control rating) (Puccinia triticina; [3]): A (> 80)
- LV activity at 125.1 g/H PUCCRT 3DC (disease control rating) (Puccinia triticina; [4]): A (> 80)
- LV activity at 125.1 g/H SEPTTR 1DP (disease control rating) (Zymoseptoria tritici; [3]): A (> 80)
- LV activity at 125.1 g/H SEPTTR 3DC (disease control rating) (Zymoseptoria tritici; [4]): A (> 80)

SMILES: CCC[C@@H](OCC1CC1)[C@H](C)OC(=O)[C@H](C)NC(=O)c1nccc(OC)c1OC(C)=O [Cmpd 1057]
- LV activity at 125.1 g/H PUCCRT 1DP (disease control rating) (Puccinia triticina; [3]): B (≤ 80)
- LV activity at 125.1 g/H PUCCRT 3DC (disease control rating) (Puccinia triticina; [4]): A (> 80)
- LV activity at 125.1 g/H SEPTTR 1DP (disease control rating) (Zymoseptoria tritici; [3]): B (≤ 80)
- LV activity at 125.1 g/H SEPTTR 3DC (disease control rating) (Zymoseptoria tritici; [4]): B (≤ 80)

SMILES: CCC(CC)[C@H](Oc1ccc(Cl)cc1Cl)[C@H](C)OC(=O)[C@H](C)NC(=O)c1nccc(OC)c1O [Cmpd 421]
- PUCCRT 1DP disease control rating, HV activity (Puccinia triticina; 1 Day Protectant): B (≤ 80)
- PUCCRT 3DC disease control rating, HV activity (Puccinia triticina; 3 Day Curative): D
- SEPTTR 1DP disease control rating, HV activity (Zymoseptoria tritici; 1 Day Protectant): B (≤ 80)
- SEPTTR 3DC disease control rating, HV activity (Zymoseptoria tritici; 3 Day Curative): D

SMILES: CC[C@H](CCC(C)C)[C@@H](OCC1CC1)[C@H](C)OC(=O)[C@H](C)NC(=O)c1nccc(OC)c1OCOC(C)=O [Cmpd 506]
- PUCCRT 1DP, LV activity at 125.1 g/H (% Control rating) (Puccinia triticina; [3]): A (> 80)
- PUCCRT 3DC, LV activity at 125.1 g/H (% Control rating) (Puccinia triticina; [4]): B (≤ 80)
- SEPTTR 1DP, LV activity at 125.1 g/H (% Control rating) (Zymoseptoria tritici; [3]): B (≤ 80)
- SEPTTR 3DC, LV activity at 125.1 g/H (% Control rating) (Zymoseptoria tritici; [4]): B (≤ 80)

SMILES: CCCOC(CC)C(Oc1ccccc1)C(C)OC(=O)C(C)NC(=O)c1nccc(OC)c1O (stereo not shown) [Cmpd 295]
- PUCCRT disease control, 1DP (Puccinia triticina; [5]): B (≤ 80)
- PUCCRT disease control, 3DC (Puccinia triticina; [6]): B (≤ 80)
- PUCCRT 1DP disease control rating, HV activity (Puccinia triticina; 1 Day Protectant): B (≤ 80)
- PUCCRT 3DC disease control rating, HV activity (Puccinia triticina; 3 Day Curative): B (≤ 80)
- PUCCRT 1DP, HV activity at 100 ppm (% control rating) (Puccinia triticina; [7]): B (≤ 80)
- PUCCRT 3DC, HV activity at 100 ppm (% control rating) (Puccinia triticina; [8]): B (≤ 80)
- SEPTTR disease control, 1DP (Zymoseptoria tritici; [5]): D
- SEPTTR disease control, 3DC (Zymoseptoria tritici; [6]): B (≤ 80)
- SEPTTR 1DP disease control rating, HV activity (Zymoseptoria tritici; 1 Day Protectant): D
- SEPTTR 3DC disease control rating, HV activity (Zymoseptoria tritici; 3 Day Curative): B (≤ 80)
- SEPTTR 1DP, HV activity at 100 ppm (% control rating) (Zymoseptoria tritici; [7]): D
- SEPTTR 3DC, HV activity at 100 ppm (% control rating) (Zymoseptoria tritici; [8]): B (≤ 80)

SMILES: CCC(CC)[C@@H](Oc1cccc(-c2ccccc2)c1)[C@H](C)OC(=O)[C@H](C)NC(=O)c1nccc(OC)c1OC(C)=O [Cmpd 606]
- PUCCRT 1DP, LV activity at 125.1 g/H (% Control rating) (Puccinia triticina; [3]): A (> 80)
- PUCCRT 3DC, LV activity at 125.1 g/H (% Control rating) (Puccinia triticina; [4]): B (≤ 80)
- SEPTTR 1DP, LV activity at 125.1 g/H (% Control rating) (Zymoseptoria tritici; [3]): A (> 80)
- SEPTTR 3DC, LV activity at 125.1 g/H (% Control rating) (Zymoseptoria tritici; [4]): B (≤ 80)

SMILES: COc1ccnc(C(=O)N[C@@H](C)C(=O)O[C@@H](C)[C@H](Oc2ccc(Cl)cc2Cl)C2CCCC2)c1O [Cmpd 346]
- PUCCRT 1DP disease control rating, HV activity (Puccinia triticina; 1 Day Protectant): B (≤ 80)
- PUCCRT 3DC disease control rating, HV activity (Puccinia triticina; 3 Day Curative): D
- SEPTTR 1DP disease control rating, HV activity (Zymoseptoria tritici; 1 Day Protectant): D
- SEPTTR 3DC disease control rating, HV activity (Zymoseptoria tritici; 3 Day Curative): B (≤ 80)

SMILES: CC[C@H](Cc1ccccc1)[C@@H](Oc1ccccc1)[C@H](C)OC(=O)[C@H](C)NC(=O)c1nccc(OC)c1O [Cmpd 311]
- PUCCRT 1DP disease control rating, HV activity (Puccinia triticina; 1 Day Protectant): A (> 80)
- PUCCRT 3DC disease control rating, HV activity (Puccinia triticina; 3 Day Curative): A (> 80)
- SEPTTR 1DP disease control rating, HV activity (Zymoseptoria tritici; 1 Day Protectant): A (> 80)
- SEPTTR 3DC disease control rating, HV activity (Zymoseptoria tritici; 3 Day Curative): B (≤ 80)

SMILES: CCC(CC)[C@@H](Oc1cccc(Cl)c1)[C@H](C)OC(=O)[C@@H](NC(=O)c1nccc(OC)c1OC(C)=O)C(C)C [Cmpd 658]
- PUCCRT 1DP disease control rating, LV activity at 125.1 g/H (Puccinia triticina; [9]): A (> 80)
- PUCCRT 3DC disease control rating, LV activity at 125.1 g/H (Puccinia triticina; [10]): B (≤ 80)
- SEPTTR 1DP disease control rating, LV activity at 125.1 g/H (Zymoseptoria tritici; [9]): D
- SEPTTR 3DC disease control rating, LV activity at 125.1 g/H (Zymoseptoria tritici; [10]): B (≤ 80)
